In patent publication US20230099822A1, “MR1 LIGANDS AND PHARMACEUTICAL COMPOSITIONS FOR IMMUNOMODULATION” (UNIVERSITÄT BASEL, priority 2020, published 2023):
Where a name gives a salt, the structure may show the parent alone.

Legend:
MR1T cell clones [1] = experiment: MR1T cell activation assay with treated and fixed A375-MR1 cells; type: cell-based, human; settings: 18 h treatment before fixation; concentrations (FIG. 10D-L)
Experimental: (§1) MR1T cells (5×10^4/well unless otherwise indicated) were co-cultured with the indicated APCs (10^5 cells per well unless otherwise indicated) for 18 h in 120 μL volume in triplicate. In some experiments, anti-MR1 mAbs (clone 26.5, purified and endotoxin-free mouse IgG2a, (Lepore et al., 2014)) or mouse IgG2a isotype control mAbs (LEAF, Biolegend, Cat #401504) (both at 30 μg/mL) were added and incubated for 30 min at 37° C. prior to the addition of T cells.
(§2) In experiments with mycophenolic acid (10 μM), EHNA (25 μM), S-p-bromobenzylglutathione cyclopentyl diester (BBG, 20 μM) (all from Sigma-Aldrich), THP-1 cells (1×10^6/mL) were treated with the indicated concentrations of drugs in complete medium at 37° C. for 18 h before being washed twice with PBS, counted and used for T-cell activation. In experiments where THP-1 cells (1×10^6/mL) were treated with doxorubicin (75 nM) and paclitaxel (5 μM) (both from Sigma-Aldrich), the cells were incubated at 37° C. for 18 h before being washed twice with PBS, counted, and incubated for 2 h with vehicle or 150 μM dAdo and 150 μM guanosine (Sigma-Aldrich) prior to T-cell addition. In experiments where fixed A375-MR1 cells were used to activate MR1T cells, APCs (4×10^5/mL) were treated with apocynin (APO, 100 μM), L-glutathione reduced (GSH, 4 mM), N-acetyl cysteine (NAC, 4 mM), L-buthionine-sulfoximine (BSO, 400 μM) mercaptosuccinic acid (MSA, 3.3 μM), ML-210 (6 μM) or 1S,3R-RSL3 (RSL3, 1 μM), hydralazine hydrochloride (100 μM) or aminoguanidine hemisulfate salt (5 mM) for 18 h at 37° C. before being washed twice with PBS, fixed with glutaraldehyde, counted and used for MR1T cell stimulation.
(§3) The following human cytokines were assessed by ELISA using specific mAbs: GM-CSF (purified clone BVD2-23B6 and biotinylated clone BVD2-21C11, Biolegend Cat #502202 and 502304, respectively), IFN-γ (purified clone MD-1 and biotinylated clone 4S.B3, Biolegend Cat #507502 and 502504, respectively), IL-13 (purified clone JES10-5A2 and biotinylated clone SB126d, SouthernBiotech Cat #10125-01 and 15930-08, respectively).

MR1T cell clones [2] = experiment: MR1T cell activation assay with THP-1 cells incubated with compounds (cytokine ELISA); type: cell-based, human
Experimental: MR1T cells (5×10^4/well unless otherwise indicated) were co-cultured with the indicated APCs (10^5 cells per well unless otherwise indicated) for 18 h in 120 μL volume in triplicate.
When nucleobases, nucleosides or nucleotides (all 250 μM) and synthetic compounds M3ADE, OPdA, M1G or OPdC were used to stimulate T cells, the THP-1 cells (10^5/well) were cultured 2 h with the indicated molecules or medium only, prior to T-cell addition. When a single concentration of synthetic antigens was used, 100 μM OPdA, 100 μM OPdC and 13 μM M1G were used for all clones, while 100 μM M3ADE was used for all clones except DGB129, AC1A4, AC1B76 and AVA46 for which 1 μM was used.

[3] = molecular target: T1, MR1 surface expression on THP-1 MR1 cells (Homo sapiens, UniProt Q95460); experiment: Cell surface MR1 modulation on APCs (flow cytometry, anti-MR1 mAb 26.5); type: cell-based; settings: for MRI upregulation: THP-1 MR1 cells, 3 h at 37° C., 3 doses each
T1 construct: expressed in transfected cells; host or cells: THP-1 (ATCC TIB-202) stably expressing MR1 (THP1-MR1)
T1 sequence (Q95460 23-341): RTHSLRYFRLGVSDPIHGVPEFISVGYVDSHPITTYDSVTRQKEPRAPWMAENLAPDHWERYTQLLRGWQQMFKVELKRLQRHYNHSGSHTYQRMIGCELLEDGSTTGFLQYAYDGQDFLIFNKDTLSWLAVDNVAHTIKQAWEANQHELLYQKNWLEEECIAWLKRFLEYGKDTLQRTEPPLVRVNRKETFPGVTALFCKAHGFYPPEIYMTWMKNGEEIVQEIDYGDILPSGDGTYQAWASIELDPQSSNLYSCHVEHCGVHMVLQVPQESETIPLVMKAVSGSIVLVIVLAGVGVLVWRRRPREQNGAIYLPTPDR
T1 sequence (P61769 21-119 partner): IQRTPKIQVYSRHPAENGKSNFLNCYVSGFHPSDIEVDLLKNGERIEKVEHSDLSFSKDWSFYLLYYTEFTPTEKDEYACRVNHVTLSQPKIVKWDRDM
Experimental: […] […] For each condition, net MFI was calculated subtracting isotype MFI from anti-MR1 MFI and fold change of cells treated with synthetic molecules over cells treated with vehicle was calculated.

MR1T cell clones [4] = experiment: Competition assay for stimulation of MR1T cell clones; type: cell-based, human; settings: APCs with compound 2 h (3 doses), then antigen at optimal concentration, cytokine ELISA
Experimental: As positive control for competition with antigens, Ac-6-FP was used (100 μM). Supernatants were collected after 24 h for cytokine analysis measured by ELISA.

MR1T cell clones [5] = experiment: MR1T cell activation assay with drug-treated THP-1 cells; type: cell-based, human; settings: for T cell response in MR1T cell clones: THP-1 cells treated with drug; for reactivity of DGB129 clone to drug-treated THP-1 cells: drug alone, 25 μM EHNA, 10 μM MPA, 20 μM BBG (FIG. 9H); for stimulation of TC5A87 MR1T clone (IFN-γ): THP-1 cells incubated 18 h with drug (FIG. 7d, f, g)
Experimental: as §1, §2, §3

MAIT clone MRC25 = experiment: Control stimulation of MAIT clone MRC25; type: cell-based, human; settings: A375-MR1 cells treated with carbonyl scavengers (FIG. 16E)
Experimental: In some experiments, MAIT cells were stimulated by APCs pulsed 3 h with 5-OP-RU as previously described or with 30 μM 6,7-dimethyl-8-ribityllumazine (Cayman Chemical Cat #23370).

| Compound | MR1T-cell stimulation (IFN-γ) by treated, fixed A375-MR1 cells (MR1T cell clones [1]) | MRI upregulation [3] | Competition (MR1T cell clones [4]) | further results |
| --- | --- | --- | --- | --- |
| N[C@@H](CCC(=O)N[C@@H](CS)C(=O)NCC(=O)O)C(=O)O [GSH, L-glutathione reduced] | significantly less IFN-γ production | – | – | – |
| C[C@@H](O)[C@H](NC(=O)N(C)c1ncnc2c1ncn2[C@@H]1O[C@H](CO)[C@@H](O)[C@H]1O)C(=O)O [Cmpd 10, N6-methyl-N6-threonylcarbamoyladenosine] | – | YES | YES | Reactive T cells isolated (MR1T cell clones [2]): YES |
| O=c1oc2c(O)c(O)cc3c(=O)oc4c(O)c(O)cc1c4c23 [Ellagic acid, ellagic acid] | – | – | – | stimulation of QY1A16 MR1T clone (IFN-γ) (MR1T cell clones [5]; THP-1 cells incubated 18 h with drug (FIG. 7e)): induces the stimulation; T cell response in MR1T cell clones (MR1T cell clones [5]): induced a strong T cell response |
| N=C(N)NN [aminoguanidine, aminoguanidine hemisulfate salt] | significant inhibition of IFN-γ production | – | – | MAIT cell activation (MAIT clone MRC25): no effect on MAIT cell activation |
| CN(C)c1nc2c(ncn2[C@@H]2O[C@H](CO)[C@@H](O)[C@H]2O)c(=O)[nH]1 [Cmpd 19, N2,N2-dimethylguanosine] | – | YES | YES | Reactive T cells isolated (MR1T cell clones [2]): YES |
| NNc1nncc2ccccc12 [hydralazine, hydralazine hydrochloride] | significant inhibition of IFN-γ production | – | – | MAIT cell activation (MAIT clone MRC25): no effect on MAIT cell activation |
| CC(=O)N[C@@H](CS)C(=O)O [N-acetylcysteine] | significantly less IFN-γ production | – | – | – |
| CC(C)=CCNc1ncnc2c1ncn2[C@@H]1O[C@H](CO)C(O)C1O (stereo partly shown) [Cmpd 6, N6-isopent-2-enyladenosine] | – | YES | YES | Reactive T cells isolated (MR1T cell clones [2]): YES |
| NC(CCC(=O)NC(CSCc1ccc(Br)cc1)C(=O)NCC(=O)OC1CCCC1)C(=O)OC1CCCC1 (stereo not shown) [BBG, S-p-bromobenzylglutathione cyclopentyl diester] | – | – | – | IFN-γ release of both MR1T cell clones to THP-1 cells (MR1T cell clones [5]; BBG in combination with each of MPA and EHNA, clones TC5A87 and DGB129 (FIG. 9G, H)): significantly enhanced; reactivity of DGB129 clone to drug-treated THP-1 cells (MR1T cell clones [5]): reacted |
| O=C(O)CC(S)C(=O)O (stereo not shown) [mercaptosuccinic acid] | significantly increased MR1T-cell stimulatory activity | – | – | – |
| COC(=O)c1ccc([C@H]2c3[nH]c4ccccc4c3C[C@H](C(=O)OC)N2C(=O)CCl)cc1 [RSL3, 1S,3R-RSL3] | significantly increased MR1T-cell stimulatory activity | – | – | – |
| C[C@@H](O)[C@H](NC(=O)Nc1ncnc2c1ncn2[C@@H]1O[C@H](CO)[C@@H](O)[C@H]1O)C(=O)O [Cmpd 5, N6-threonylcarbamoyladenosine] | – | YES | YES | Reactive T cells isolated (MR1T cell clones [2]): YES |
| Cc1onc(C(=O)N2CCN(C(c3ccc(Cl)cc3)c3ccc(Cl)cc3)CC2)c1[N+](=O)[O-] [ML-210] | significantly increased MR1T-cell stimulatory activity | – | – | – |
| O=c1[nH]cc([C@@H]2O[C@H](CO)C(O)C2O)c(=O)[nH]1 (stereo in doubt) [Cmpd 36, 5-(3,4-dihydroxy-5-(hydroxymethyl)tetrahydrofuran-2-yl)pyrimidine-2,4(1H,3H)-dione] | – | YES | YES | – |
| Cc1cn([C@@H]2O[C@H](CO)[C@@H](O)[C@H]2O)c(=O)[nH]c1=O [Cmpd 31, 5-methyluridine] | – | YES | YES | – |
| COc1c(C)c2c(c(O)c1C/C=C(\C)CCC(=O)O)C(=O)OC2 [Mycophenolic acid] | – | – | – | stimulation of TC5A87 MR1T clone (IFN-γ) (MR1T cell clones [5]): induces the stimulation; T cell response in MR1T cell clones (MR1T cell clones [5]): induced a strong stimulation; reactivity of DGB129 clone to drug-treated THP-1 cells (MR1T cell clones [5]): reacted |
| O=c1c(-c2ccc(O)cc2)coc2cc(O[C@@H]3O[C@H](CO)[C@@H](O)[C@H](O)[C@H]3O)ccc12 [Daidzin] | – | – | – | response of MCA2B9 MR1T clone (IFN-γ) (MR1T cell clones [5]; THP-1 cells incubated 18 h with drug (FIG. 7a, b)): increase the response; T cell response in MR1T cell clones (MR1T cell clones [5]): induced a strong T cell response |
| Cn1cnc2c(ncn2[C@@H]2O[C@H](CO)[C@@H](O)[C@H]2O)c1=N [Cmpd 1, 1-methyladenosine] | – | YES | YES | – |
| Cc1nc(N)c2ncn([C@@H]3O[C@H](CO)[C@@H](O)[C@H]3O)c2n1 [Cmpd 2, 2-methyladenosine] | – | YES | YES | cell surface MR1 upregulation on APCs (in words) ([3]; pulsed APC / THP1-MR1 cells): upregulation |
| CNc1ncnc2c1ncn2[C@@H]1O[C@H](CO)[C@@H](O)[C@H]1O [Cmpd 42, N6-methyladenosine] | – | YES | YES | – |
| CO[C@@H]1[C@H](O)[C@@H](CO)O[C@H]1n1ccc(N)nc1=O [Cmpd 29, 2′-O-methylcytidine] | – | YES | YES | – |
| COc1cc(C(C)=O)ccc1O [apocynin] | effective with one T-cell clone | – | – | – |
| Cn1c(=O)ccn([C@@H]2O[C@H](CO)[C@@H](O)[C@H]2O)c1=O [Cmpd 30, 3-methyluridine] | – | YES | YES | Reactive T cells isolated (MR1T cell clones [2]): YES |
| CCCCCC[C@@H]([C@@H](C)O)n1cnc2c(N)ncnc21 (racemic) [EHNA, erythro-9-(2-hydroxy-3-nonyl) adenine] | – | – | – | stimulation of TC5A87 MR1T clone (IFN-γ) (MR1T cell clones [5]): induces the stimulation; T cell response in MR1T cell clones (MR1T cell clones [5]): induced a strong stimulation; reactivity of DGB129 clone to drug-treated THP-1 cells (MR1T cell clones [5]): reacted |
| CC1(C)CC[C@]2(C(=O)O)CC[C@]3(C)C(=CC[C@@H]4[C@@]5(C)CC[C@H](O)C(C)(C)[C@@H]5CC[C@]43C)[C@@H]2C1 [Oleanoic acid, oleanoic acid] | – | – | – | stimulation of TC5A87 MR1T clone (IFN-γ) (MR1T cell clones [5]): induces the stimulation; T cell response in MR1T cell clones (MR1T cell clones [5]): induced a strong T cell response |
| CCCCS(=N)(=O)CCC(N)C(=O)O (stereo not shown) [buthionine sulfoximine] | significant increase | – | – | – |
| COC(=O)N[C@@H](CCc1c(C)nc2n(C)c3c(ncn3[C@@H]3O[C@H](CO)[C@@H](O)[C@H]3O)c(=O)n12)C(=O)OC [Cmpd 34, Wybutosine] | – | YES | YES | – |
